Measurements reported in patent US20030190671A1, “Use of metabolic phenotyping in individualized treatment with amonafide” (McGill University, priority 2001, published 2003).
Marks after values point to notes of the source that are not given here.

Key:
Format in all cases: binding, rabbit
AAMU-Ab = assay: Competitive antigen ELISA, cross-reactivity of AAMU-Ab; settings: for % Cross-Reaction AAMU-Ab: competitive antigen ELISA, 0 = absence of inhibition or inhibition no higher than 40% at the highest concentration tested (5×10^−3 M)
Protocol: (§1) Competitive Antigen ELISA
(§2) Buffers and water without additives are filtered through millipore filters and kept for 1 week. BSA, antibodies, Tween™ 20 and horse radish peroxidase conjugates are added to these buffers and water just prior to use. Urine samples are usually collected 4 hours after drinking a cup of coffee (instant or brewed with approximately 100 mg of caffeine per cup) and stored at −80° C. The urine samples are diluted 10 times with sodium phosphate buffer (620 mosm, pH 7.50) and are subsequently diluted with water to give concentrations of AAMU and 1X no higher than 3×10^−6 M in the ELISA. All the pipettings are done with an eight-channel pipette, except those of the antibody and sample solutions. Starting with the last well, 100 μL of a carbonate buffer (100 mM, pH 9.6) containing 2.5 μg mL-1 antibodies are added to each well. After 90 min. at room temperature, the wells are washed three times with 100 mL of TPB: isotonic sodium phosphate buffer (310 mosm, pH 7.50) containing 0.05% Tween™ 20.
(§3) After the initial wash, unoccupied sites are blocked by incubation for 90 min. at room temperature with 100 μL TBP containing 3% BSA. The wells are washed four times with 100 […] TPB. […] The microplate is gently shaken with an orbital shaker at room temperature for 3-4 hours. The wells are washed three times with 100 μL TPB containing 1% BSA and three times with water containing 0.05% Tween™ 20. To the washed plate is added 150 μL of a substrate buffer composed of citric acid (25 mM) and sodium phosphate dibasic buffer (50 mM, pH 5.0) containing 0.06% hydrogen peroxide and 0.04% o-phenylenediamine hydrochloride.
as §2, with “were” for “are”, “They were” for “The urine samples are”, “mL^−1” for “mL-1”, “was pipetted.” for “are added to each well.”, “μL” for “mL”
(§4) After the initial wash, unoccupied sites were blocked by incubation for 90 min. at room temperature with 100 μL TBP containing 3% BSA. The wells were washed four times with 100 μL TPB. […] The microplate was gently shaken with an orbital shaker at room temperature for 3-4 hours. The wells were washed three times with 100 μL with TPB containing 1% BSA and three times with water containing 0.05% Tween™ 20. To the washed plate was added 150 μL of a substrate buffer composed of citric acid (25 mM) and sodium phosphate dibasic buffer (50 mM, pH 5.0) containing 0.06% hydrogen peroxide and 0.04% o-phenylenediamine hydrochloride. After 20 min. at room temperature with shaking, the reaction was stopped with 50 μL of 2.5 N HCl.
(§5) The cross reactivities of AAMU-Ab and 1X-Ab were tested using a wide variety of caffeine metabolites and structural analogs (Table 2 below).

1X-Ab = assay: Competitive antigen ELISA, cross-reactivity of 1X-Ab; settings: for % Cross-Reaction 1X-Ab: competitive antigen ELISA, 0 = absence of inhibition or inhibition no higher than 40% at the highest concentration tested (5×10^−3 M)
Protocol: as §1, §2, §3
as §2, with “were” for “are”, “They were” for “The urine samples are”, “mL^−1” for “mL-1”, “was pipetted.” for “are added to each well.”, “μL” for “mL”
as §4, §5

Caffeine-Ab = assay: Competitive antigen ELISA, antibody specificity of caffeine-Ab; settings: hypothesized ideal antibody specificity; 0 = no inhibition or no higher than 40% at 5×10^−3 M
Protocol: as §1
(§6) BSA, antibodies, Tween™ 20 and horse radish peroxidase are added to buffers and water just prior to use. Urine samples are usually collected four hours after drinking a cup of coffee (instant or brewed with approximately 100 mg of caffeine per cup) and stored at −20° C. as 1-mL aliquots in 1.5-mL microtubes. For the ELISA, the urine samples are diluted with isotonic sodium phosphate buffer, pH 7.5 (310 mosM) to give concentrations of caffeine, 1.7-DMX and 1,7-DMU no higher than 3×10^−6 M in the microtiter plate wells. Wells of the ELISA plate are washed with a Nunc-Immuno wash 12 washer. Sixteen milliliters of a solution of 6.6 μg ml^−1 of isolated IgG antibodies is prepared in a 100 mM sodium carbonate buffer, pH 9.6, and 150 μL of this solution is pipetted in each well of a microtiter plate using a eight channel pipet (Brinkmann Transferpette™-8 50-200 μL) and 200 μL Flex tips from Brinkmann). After coating the wells with antibodies at 4° C. for 20 hours, the wells are washed 3 times with the isotonic sodium phosphate buffer containing 0.05% Tween™ 20 (IPBT) and properly drained by inverting the plate and absorbing the liquid on to a piece of paper towel. Thirty milliliters of a solution of a IPBT solution containing 1% BSA is prepared and 150 μL of this solution is pipetted in each well using a eight channel pipet (Brinkmann Transferpet-te™-8 50-200 μL) and 200 μL yellow tips (Sarstedt yellow tips for P200 Gilson Pipetman). After 3 hours at room temperature, the wells are washed 3 times with IPBT solution and drained. Samples of 400 μL for determination of caffeine, 1,7-DMX and 1,7-DMU are prepared in 1.5-mL microtubes using Sarstedt yellow tips and a P200 Gilson Pipetman. Then, 200 μL of each sample are pipetted in duplicate in a Falcon 96-well microtest tissue culture plate according to the pattern shown in FIG. 23, using Sarstedt yellow tips and a P200 Gilson Pipetman. Using an eight channel pipet (Brinkmann Transferpette™-8 50-200 μL) and changing the tips of the eight channel pipet (200 μL Flex tips from Brinkmann) at each row, 150 μL of samples are transferred in the corresponding wells of a 96-well ELISA microtiter plate coated with antibodies. After the addition of the samples, the microtiter plates are covered and left standing at room temperature for 2 h. While the plate is left standing the substrate buffer without the hydrogen peroxide and o-phenylenediamine hydrochloride is prepared (25 mM citric acid and 50 mM sodium phosphate dibasic buffer, pH 5.0). The microtiter plate is washed 3 times with the IPBT solution and 3 times with a 0.05% Tween 20 solution and drained. Then, 50 […] of hydrogen peroxide and 40 mg of o-phenylenediamine are added to the substrate buffer. One hundred fifty microliters (150 μL) of the substrate buffer solution is then added to each well using a eight channel pipet (Brinkmann Transferpette™-8 50-200 μL) and 200 μL Flex tips (Brinkmann). The microtiter plate is covered and shaken for 25-30 min at room temperature and the enzymatic reaction is stopped by adding 50 μL/well of a 2.5 N HCl solution using an eight channel pipet (Brinkmann Transferpette™-8 50-200 μL) and 200 μL Flex tips (Brinkmann).

1,7-DMX-Ab = assay: Competitive antigen ELISA, antibody specificity of 1,7-DMX-Ab; settings: hypothesized ideal antibody specificity; 0 = no inhibition or no higher than 40% at 5×10^−3 M
Protocol: as §1, §6

1,7-DMU-Ab = assay: Competitive antigen ELISA, antibody specificity of 1,7-DMU-Ab; settings: hypothesized ideal antibody specificity; 0 = no inhibition or no higher than 40% at 5×10^−3 M
Protocol: as §1, §6

Compound	% Cross-Reaction AAMU-Ab (AAMU-Ab)	% Cross-Reaction 1X-Ab (1X-Ab)	% Cross-reaction Caffeine-Ab (Caffeine-Ab)	% Cross-reaction 1,7-DMX-Ab (1,7-DMX-Ab)	% Cross-reaction 1,7-DMU-Ab (1,7-DMU-Ab)	IC50 (1X-Ab; read-out: concentration required for 50% inhibition in the competitive antigen ELISA, 1X-Ab)	IC50 (AAMU-Ab; read-out: concentration required for 50% inhibition in the competitive antigen ELISA, AAMU-Ab)
O=c1[nH]cnc2nc[nH]c12 [Hypoxanthine]	0%	0%	0%	0%	0%	–	–
O=c1cc[nH]c(=O)[nH]1 [Uracil]	0%	0%	0%	0%	0%	–	–
Cn1c(=O)c2c(ncn2C)n(C)c1=O [1,3,7-Trimethyl Xanthine (Caffeine), 1,3,7-trimethylxanthine]	0%	0%	100%	0^a %	0%	–	–
Cn1c(=O)[nH]c2ncn(C)c2c1=O [1,7-Dimethyl Xanthine (Paraxanthine), 1,7-dimethylxanthine]	0%	0.5%	0%	100%	0%	–	–
O=c1[nH]c(=O)c2[nH]cnc2[nH]1 [Xanthine]	0^a %	0%	0%	0%	0%	–	–
Cn1c(=O)[nH]c2[nH]c(=O)n(C)c2c1=O [1,7-Dimethyluric acid, 1,7-dimethyluric acid]	0%	0%	0%	0%	100%	–	–
Cn1c(=O)[nH]c2nc[nH]c2c1=O [1-Methyl Xanthine (1X), 1-methylxanthine]	0%	100%	0%	0%	0%	10 µM	–
Cn1cnc2c1c(=O)[nH]c(=O)n2C [3,7-Dimethyl Xanthine (Theobromine), 3,7-Dimethyl Xanthine]	0%	0%	0%	0%	0%	–	–
CC(=O)Nc1c(N)[nH]c(=O)[nH]c1=O [5-Acetamino-6-amino-uracil]	0.6%	0%	0%	0%	0%	–	–
Cn1c(=O)c2[nH]cnc2n(C)c1=O [1,3-Dimethyl Xanthine (Theophylline), 1,3-Dimethyl Xanthine]	0%	0.2%	0%	0%	0%	–	–
Cn1c(=O)[nH]c2[nH]c(=O)[nH]c2c1=O [1-Methyluric acid, 1-methyluric acid]	0%	11%	0%	0%	0%	–	–
Cn1cnc2[nH]c(=O)[nH]c(=O)c21 [7-Methyl Xanthine]	0%	0%	0%	0%	0%	–	–
Cn1c(=O)c2[nH]c(=O)[nH]c2n(C)c1=O [1,3-Dimethyluric acid]	–	–	0%	0%	0%	–	–
Cn1c(=O)[nH]c(=O)c2c1[nH]c(=O)n2C [3,7-Dimethyluric acid]	–	–	0%	0%	0%	–	–
Cn1c(=O)[nH]c2[nH]c(=O)[nH]c(=O)c21 [7-Methyluric acid]	–	–	0%	0%	0%	–	–
CC(=O)Nc1c(N)n(C)c(=O)n(C)c1=O [5-Acetamino-6-amino-1,3-dimethyluracil]	0%	0%	0%	0%	0%	–	–
Cn1c(=O)c2c([nH]c(=O)n2C)n(C)c1=O [1,3,7-Trimethyluric acid]	–	–	0%	0%	0%	–	–
Nc1nc2nc[nH]c2c(=O)[nH]1 [Guanine]	0%	0%	0%	0%	0%	–	–
CC(=O)Nc1c(N)n(C)c(=O)[nH]c1=O [5-acetamino-6-amino-1-methyluracil]	100%	0%	0%	0%	0%	–	1.5 µM
Cc1nc2[nH]c(=O)[nH]c(=O)c2[nH]1 [8-Methyl Xanthine]	0%	0%	0%	0%	0%	–	–
Cn1c(=O)[nH]c(=O)c2[nH]c(=O)[nH]c21 [3-Methyluric acid]	–	–	0%	0%	0%	–	–
